Targets include D(3) dopamine receptor (Homo sapiens, UniProt P35462); Histamine H1 receptor (Cavia porcellus, UniProt P31389); D(2) dopamine receptor (Homo sapiens, UniProt P14416).
For assay [1], the target named is 5-hydroxytryptamine receptor 7 (Homo sapiens, UniProt P34969).
The target in assay [2] is T1, 5-hydroxytryptamine receptor 3A (Rattus norvegicus, UniProt P35563).
T1 sequence (P35563 whole entry): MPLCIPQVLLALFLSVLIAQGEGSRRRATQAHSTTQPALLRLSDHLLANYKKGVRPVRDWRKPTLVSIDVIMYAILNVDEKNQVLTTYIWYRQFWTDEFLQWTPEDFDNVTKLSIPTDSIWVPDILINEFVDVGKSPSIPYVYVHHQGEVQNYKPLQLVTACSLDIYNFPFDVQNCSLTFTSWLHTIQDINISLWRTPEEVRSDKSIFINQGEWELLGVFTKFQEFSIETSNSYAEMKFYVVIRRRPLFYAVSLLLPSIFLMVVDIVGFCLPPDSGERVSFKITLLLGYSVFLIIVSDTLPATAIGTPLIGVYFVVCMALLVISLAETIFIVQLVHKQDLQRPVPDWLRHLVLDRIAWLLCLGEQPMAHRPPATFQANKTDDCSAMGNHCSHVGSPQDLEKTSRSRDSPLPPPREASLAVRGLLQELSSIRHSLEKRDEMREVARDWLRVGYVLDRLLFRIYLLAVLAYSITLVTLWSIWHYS

In a further assay the target is T2, Adenosine receptor A1 (Rattus norvegicus, UniProt P25099).
T2 sequence (P25099 whole entry): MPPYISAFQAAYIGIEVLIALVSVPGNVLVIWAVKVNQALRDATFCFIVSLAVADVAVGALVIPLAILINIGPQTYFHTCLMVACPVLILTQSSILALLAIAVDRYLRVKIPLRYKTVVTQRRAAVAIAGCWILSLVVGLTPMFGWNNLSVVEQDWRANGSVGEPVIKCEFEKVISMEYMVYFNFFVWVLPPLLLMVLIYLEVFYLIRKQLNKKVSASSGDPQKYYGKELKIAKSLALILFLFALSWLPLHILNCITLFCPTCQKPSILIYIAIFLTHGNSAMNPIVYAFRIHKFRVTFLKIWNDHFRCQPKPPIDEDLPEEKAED

Assay [3] has as its target T3, Alpha-1A adrenergic receptor (Rattus norvegicus, UniProt P43140).
T3 sequence (P43140 whole entry): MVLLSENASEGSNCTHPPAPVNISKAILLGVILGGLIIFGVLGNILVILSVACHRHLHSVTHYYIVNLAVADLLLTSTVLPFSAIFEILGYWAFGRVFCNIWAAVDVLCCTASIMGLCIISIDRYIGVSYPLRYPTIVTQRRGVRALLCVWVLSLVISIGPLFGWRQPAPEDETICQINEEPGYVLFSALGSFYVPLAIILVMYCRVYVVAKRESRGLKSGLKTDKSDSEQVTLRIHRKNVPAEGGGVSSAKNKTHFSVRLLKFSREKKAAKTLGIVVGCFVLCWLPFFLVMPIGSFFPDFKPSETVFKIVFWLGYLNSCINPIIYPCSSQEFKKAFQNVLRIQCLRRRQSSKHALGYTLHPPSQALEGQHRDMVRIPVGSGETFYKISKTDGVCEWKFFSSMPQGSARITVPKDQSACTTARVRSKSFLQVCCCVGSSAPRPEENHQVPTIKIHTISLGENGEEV

Assay [4] has as its target T4, 5-hydroxytryptamine receptor 1F (Homo sapiens, UniProt P30939).
T4 sequence (P30939 whole entry): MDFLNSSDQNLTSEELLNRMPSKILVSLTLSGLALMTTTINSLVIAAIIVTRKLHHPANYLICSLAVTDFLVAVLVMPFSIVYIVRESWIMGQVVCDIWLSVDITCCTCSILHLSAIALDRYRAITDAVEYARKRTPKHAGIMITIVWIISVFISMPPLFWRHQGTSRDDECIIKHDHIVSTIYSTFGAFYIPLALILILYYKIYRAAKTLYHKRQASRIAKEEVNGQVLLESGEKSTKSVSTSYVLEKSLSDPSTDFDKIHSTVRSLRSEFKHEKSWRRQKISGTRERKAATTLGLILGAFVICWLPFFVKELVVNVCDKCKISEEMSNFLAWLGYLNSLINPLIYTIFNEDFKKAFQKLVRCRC

The target of assay [5] is 5-hydroxytryptamine receptor 2B (Rattus norvegicus, UniProt P30994).
Sequence of 5-hydroxytryptamine receptor 2B (P30994 whole entry): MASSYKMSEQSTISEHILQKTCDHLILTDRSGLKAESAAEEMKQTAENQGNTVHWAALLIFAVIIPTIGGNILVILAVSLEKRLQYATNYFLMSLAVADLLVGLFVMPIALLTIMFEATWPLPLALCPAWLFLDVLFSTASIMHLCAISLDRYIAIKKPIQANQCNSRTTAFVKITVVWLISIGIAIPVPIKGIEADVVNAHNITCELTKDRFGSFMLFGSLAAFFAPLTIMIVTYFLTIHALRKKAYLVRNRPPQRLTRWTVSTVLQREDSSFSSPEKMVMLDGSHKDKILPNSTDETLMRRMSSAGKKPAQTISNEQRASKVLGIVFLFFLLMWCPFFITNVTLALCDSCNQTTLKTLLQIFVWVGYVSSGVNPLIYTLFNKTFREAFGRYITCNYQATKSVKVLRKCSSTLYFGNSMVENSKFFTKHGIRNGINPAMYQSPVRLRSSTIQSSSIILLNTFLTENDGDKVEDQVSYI
A further assay deals with T5, D(4) dopamine receptor (Homo sapiens, UniProt P21917).
T5 sequence (P21917 whole entry): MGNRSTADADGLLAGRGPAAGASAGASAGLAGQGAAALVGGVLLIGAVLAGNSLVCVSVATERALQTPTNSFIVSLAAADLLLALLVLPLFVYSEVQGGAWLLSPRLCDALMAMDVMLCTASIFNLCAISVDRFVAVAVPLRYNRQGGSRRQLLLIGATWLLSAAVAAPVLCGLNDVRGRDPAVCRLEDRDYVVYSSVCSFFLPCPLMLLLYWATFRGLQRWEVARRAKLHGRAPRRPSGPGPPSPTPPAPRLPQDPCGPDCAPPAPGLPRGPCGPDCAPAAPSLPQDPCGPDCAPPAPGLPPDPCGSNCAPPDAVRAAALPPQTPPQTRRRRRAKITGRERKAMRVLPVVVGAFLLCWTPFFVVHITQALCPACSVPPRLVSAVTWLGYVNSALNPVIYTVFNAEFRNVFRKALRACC

The target of assay [6] is 5-hydroxytryptamine receptor 1D (Cavia porcellus, UniProt Q60484).
Sequence of 5-hydroxytryptamine receptor 1D (Q60484 whole entry): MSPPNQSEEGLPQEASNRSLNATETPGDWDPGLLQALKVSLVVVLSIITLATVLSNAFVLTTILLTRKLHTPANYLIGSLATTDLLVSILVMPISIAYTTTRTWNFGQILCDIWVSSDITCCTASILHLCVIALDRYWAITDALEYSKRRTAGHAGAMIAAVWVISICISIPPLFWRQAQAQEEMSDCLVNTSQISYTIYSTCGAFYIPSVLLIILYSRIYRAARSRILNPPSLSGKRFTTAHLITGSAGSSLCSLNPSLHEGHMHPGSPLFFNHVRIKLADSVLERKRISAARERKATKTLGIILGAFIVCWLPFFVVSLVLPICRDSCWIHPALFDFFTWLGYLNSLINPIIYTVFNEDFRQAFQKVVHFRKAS
In assay [7] the target is Gamma-aminobutyric acid receptor subunit alpha-1 (Rattus norvegicus, UniProt P62813).
Sequence of Gamma-aminobutyric acid receptor subunit alpha-1 (P62813 whole entry): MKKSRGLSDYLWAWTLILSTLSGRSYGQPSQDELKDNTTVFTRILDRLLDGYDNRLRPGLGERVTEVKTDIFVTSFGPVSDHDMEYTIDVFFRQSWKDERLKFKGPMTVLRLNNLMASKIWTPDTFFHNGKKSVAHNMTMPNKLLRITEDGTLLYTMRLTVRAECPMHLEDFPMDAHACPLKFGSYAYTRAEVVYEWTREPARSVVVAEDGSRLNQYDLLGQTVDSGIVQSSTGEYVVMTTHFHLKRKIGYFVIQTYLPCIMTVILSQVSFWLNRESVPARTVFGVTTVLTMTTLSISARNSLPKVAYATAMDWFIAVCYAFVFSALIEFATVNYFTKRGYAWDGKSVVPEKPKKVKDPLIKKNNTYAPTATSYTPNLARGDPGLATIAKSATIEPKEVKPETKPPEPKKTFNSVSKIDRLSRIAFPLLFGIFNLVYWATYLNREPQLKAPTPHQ
The target in assay [8] is 5-hydroxytryptamine receptor 1E (Homo sapiens, UniProt P28566).
Sequence of 5-hydroxytryptamine receptor 1E (P28566 whole entry): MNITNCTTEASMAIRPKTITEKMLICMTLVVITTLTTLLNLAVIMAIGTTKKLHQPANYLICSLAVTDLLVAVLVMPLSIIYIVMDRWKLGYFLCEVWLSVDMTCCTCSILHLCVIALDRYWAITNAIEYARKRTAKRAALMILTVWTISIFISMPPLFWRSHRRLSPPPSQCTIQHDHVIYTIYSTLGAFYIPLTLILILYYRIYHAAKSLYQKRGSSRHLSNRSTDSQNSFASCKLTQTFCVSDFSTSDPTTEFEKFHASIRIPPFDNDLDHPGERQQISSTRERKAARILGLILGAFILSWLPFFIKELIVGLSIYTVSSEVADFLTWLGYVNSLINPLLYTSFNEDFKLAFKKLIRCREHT
For assay [9], the target named is 5-hydroxytryptamine receptor 2A (Homo sapiens, UniProt P28223).
Sequence of 5-hydroxytryptamine receptor 2A (P28223 whole entry): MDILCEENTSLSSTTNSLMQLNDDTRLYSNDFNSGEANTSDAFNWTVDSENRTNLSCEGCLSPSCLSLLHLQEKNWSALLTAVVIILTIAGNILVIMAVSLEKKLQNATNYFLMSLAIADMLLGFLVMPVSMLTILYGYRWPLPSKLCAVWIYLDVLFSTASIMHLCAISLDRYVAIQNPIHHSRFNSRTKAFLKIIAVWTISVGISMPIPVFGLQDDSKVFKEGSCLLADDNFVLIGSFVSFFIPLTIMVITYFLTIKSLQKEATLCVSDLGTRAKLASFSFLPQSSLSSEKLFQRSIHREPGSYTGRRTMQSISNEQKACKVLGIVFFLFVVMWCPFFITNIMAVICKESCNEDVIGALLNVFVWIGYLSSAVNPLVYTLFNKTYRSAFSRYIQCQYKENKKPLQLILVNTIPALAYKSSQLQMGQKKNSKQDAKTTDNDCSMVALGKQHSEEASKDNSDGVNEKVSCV

Sequence of D(2) dopamine receptor (P14416 whole entry): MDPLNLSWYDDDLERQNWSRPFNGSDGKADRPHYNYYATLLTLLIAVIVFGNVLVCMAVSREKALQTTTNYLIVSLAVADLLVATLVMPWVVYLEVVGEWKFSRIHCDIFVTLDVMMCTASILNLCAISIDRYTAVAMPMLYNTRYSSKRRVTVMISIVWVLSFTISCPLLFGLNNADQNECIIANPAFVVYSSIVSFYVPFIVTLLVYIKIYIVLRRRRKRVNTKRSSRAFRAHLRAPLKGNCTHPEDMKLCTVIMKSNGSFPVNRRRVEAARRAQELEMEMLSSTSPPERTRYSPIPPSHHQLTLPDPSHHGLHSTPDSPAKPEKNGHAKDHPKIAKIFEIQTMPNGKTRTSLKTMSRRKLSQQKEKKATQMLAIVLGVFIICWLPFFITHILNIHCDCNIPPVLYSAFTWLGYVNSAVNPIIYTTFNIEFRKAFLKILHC
Sequence of D(3) dopamine receptor (P35462 as listed by the source): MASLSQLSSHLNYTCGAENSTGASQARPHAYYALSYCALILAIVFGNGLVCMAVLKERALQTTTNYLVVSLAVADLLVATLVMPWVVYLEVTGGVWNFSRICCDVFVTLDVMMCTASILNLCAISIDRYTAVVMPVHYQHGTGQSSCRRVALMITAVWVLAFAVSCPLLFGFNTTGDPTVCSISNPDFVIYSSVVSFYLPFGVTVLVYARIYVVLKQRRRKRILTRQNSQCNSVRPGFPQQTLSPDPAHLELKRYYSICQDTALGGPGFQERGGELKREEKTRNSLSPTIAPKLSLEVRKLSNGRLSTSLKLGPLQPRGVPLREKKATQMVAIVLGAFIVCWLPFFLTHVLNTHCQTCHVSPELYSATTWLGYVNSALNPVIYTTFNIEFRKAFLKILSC
Sequence of Histamine H1 receptor (P31389 whole entry): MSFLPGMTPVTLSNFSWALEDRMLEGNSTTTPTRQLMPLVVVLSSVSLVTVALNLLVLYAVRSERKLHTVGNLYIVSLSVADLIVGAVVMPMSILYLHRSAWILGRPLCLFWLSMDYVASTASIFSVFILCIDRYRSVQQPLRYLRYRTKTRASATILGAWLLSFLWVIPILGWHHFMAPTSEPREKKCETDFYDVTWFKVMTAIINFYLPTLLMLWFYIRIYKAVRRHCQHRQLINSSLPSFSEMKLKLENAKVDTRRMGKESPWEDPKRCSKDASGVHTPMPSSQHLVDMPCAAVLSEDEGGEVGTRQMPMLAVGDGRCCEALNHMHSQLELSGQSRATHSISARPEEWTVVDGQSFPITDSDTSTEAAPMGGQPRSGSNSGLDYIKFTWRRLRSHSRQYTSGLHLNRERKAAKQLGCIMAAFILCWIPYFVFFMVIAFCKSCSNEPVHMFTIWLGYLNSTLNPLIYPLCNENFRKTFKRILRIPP
Sequence of 5-hydroxytryptamine receptor 7 (P34969 whole entry): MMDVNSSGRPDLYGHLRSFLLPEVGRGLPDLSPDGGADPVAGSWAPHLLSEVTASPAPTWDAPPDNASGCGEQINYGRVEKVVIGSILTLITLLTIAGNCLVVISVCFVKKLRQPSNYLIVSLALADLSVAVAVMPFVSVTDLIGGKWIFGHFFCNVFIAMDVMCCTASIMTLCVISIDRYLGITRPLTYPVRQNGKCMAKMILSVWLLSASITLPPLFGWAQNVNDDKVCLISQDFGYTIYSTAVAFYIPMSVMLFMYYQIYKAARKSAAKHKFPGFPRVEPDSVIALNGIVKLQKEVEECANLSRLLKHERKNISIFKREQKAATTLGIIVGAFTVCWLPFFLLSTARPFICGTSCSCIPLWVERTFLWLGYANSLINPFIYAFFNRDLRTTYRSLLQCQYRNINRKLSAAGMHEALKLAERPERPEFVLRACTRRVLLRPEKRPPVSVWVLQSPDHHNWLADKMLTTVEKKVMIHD

Consider `Cn1ccc2cc3c(cc21)CCN3C(=O)Nc1cccnc1`, for which the inhibitory constant (Ki) in [1] was 1 µM; in [2] it was over 10 µM; on Adenosine receptor A1, over 10 µM; at D(3) dopamine receptor, over 10 µM; in assay [3], over 10 µM; in assay [4], 5.01 µM. The Ki in [5] is 0.00129 µM; at D(4) dopamine receptor, over 10 µM; in [6], 1 µM; at Histamine H1 receptor it was over 10 µM; in [7], over 10 µM; in [8], 5.01 µM. In addition, the Ki was over 10 µM on D(2) dopamine receptor and 1.66 µM in [9].

As a reminder, the Ki is the dissociation constant of the complex between target and ligand, obtained from inhibition or displacement. Read a high Ki as lower affinity.
